Assay [1] has as its system A375 cells. The assay is described as follows: Mitotracker confocal imaging (mitochondrial membrane potential). Type of assay: cell-based, human. Particulars: short time after peptide treatment; data not shown. The method, then: Cells were seeded as for live cell imaging, and treated with Mitotracker CMH2XROS (Invitrogen) at […] for 15 minutes prior to peptide treatment. Cells were treated with 17 μM LTX-315, with negative control serum-free RPMI only. After 60 min of incubation, cells were analyzed using a Zeiss microscope. All confocal imaging experiments were subsequently conducted at least twice with similar results.

For assay [2], the system named is A375 cells. The assay is described as follows: Release of HMGB1 (Western blot). The class given is cell-based, human. To be noted: 35 μM, up to 60 min. The method, then: A375 cells were seeded with 3×10^5 cells/well in 6-well plates in a complete media, and allowed to adhere overnight. Cells were treated with LTX-315 or LTX-328 at 35 μM, and incubated at 37° C. and 5% CO2 for different time points (5, 10, 15, 30, 60 min), and negative controls were serum-free RPMI-1650. Supernatants (S) were collected and centrifuged at 1,400 g for five minutes, and cell lysates (L) were harvested after washing with PBS twice and then subsequently lysed using a 4× Sample buffer (Invitrogen, number), 0.1 M DTT (Sigma number) and water. Supernatants were concentrated using Amicon Ultra 50K centrifugal filters (Millipore UFC505024), and the cell lysate was sonicated. Both supernatants and lysate were boiled and resolved in a 10% sodium dodecyl sulfate polyacrylamide gel electrophoresis (SDS-PAGE), and then electro transferred to a polyvindiline difluoride (PVDF) membrane (Millipore). The membrane was blocked in 5% milk and incubated with the HMGB1 antibody (rabbit, polyclonal, abcam ab 18256); the membrane was then rinsed several times with TBST, incubated with a horseradish peroxidase (HRP)-conjugated secondary antibody (abcam ab6721), rinsed again with TBST and then developed using WB Luminol Reagent (Santa Cruz Biotechnology, Heidelberg, Germany).
A general note: In western blotting, separated proteins are transferred to a membrane and probed.

Assay [3] deals with A375 cells. Description: Release of ATP (luciferase assay). Type of assay: cell-based, human. Particulars: luciferase detection; concentration-dependent. As to the method:
The supernatant of LTX-315-treated A375 cells was analyzed using an Enliten ATP luciferase assay kit (Promega, USA). Cells were then seeded as with an ROS assay, and treated with LTX-315 in different incubation times, from 1 to 15 minutes with two parallels, which was then conducted three times. Negative controls were untreated A375 cells exposed to serum-free media alone. Samples were diluted at 1:50 and 1:100, and analyzed with a Luminoscan RT luminometer according to the manufacturer's protocol.

Assay [4] is described as follows: Exposure time for cell killing (background statement). The class given is cell-based.
For assay [5], the system named is A20 lymphoma. Description: LTX-315 with metronomic CY in A20 lymphoma model. Type of assay: in vivo, Balb/c mice. To be noted: LTX-315 alone, 1 mg i.t. once a day for 3 days. As to the method:
Tumor cells were harvested, washed in RPMI-1640 and injected intradermally (i.d.) into the right side of the abdomen in Balb/c mice (5×10^6 A20 cells per mouse/50 μl RPMI-1640). When animals obtained palpable tumors (20-30 mm^2) animals were injected i.p. with a single dose of CY (day 4) dissolved in saline (2.0 mg CY/500 μl saline). […] Tumor size was measured using an electronic caliper and expressed as the area of an ellipse [(maximum dimension/2)×(minimum dimension/2)×π]. Animals were then euthanized when the product of the perpendicular tumor dimensions reached 130 mm^2 or when tumor ulceration developed.

Assay [6] deals with A375 cells. Description: MTT viability assay, A375 melanoma. Type of assay: cell-based, human. Particulars: read-out: IC-50, melanoma cells, MTT. As to the method: The cytotoxic effect of LTX-315 was investigated using the colorimetric MTT viability assay as described in Eliassen et al. (2002), 22(5): pp 2703-10. The A375 cells were seeded at a concentration of 1×10^5 cells/ml in a volume of 0.1 ml in 96-well plates, and allowed to adhere in a complete growth media overnight. The media was then removed and the cells were washed twice in serum-free, RPMI-1650 media, before adding LTX-315 dissolved in serum-free RPMI at concentrations ranging from 2.5-300 μg/ml, and incubated for 5-180 minutes. Cells treated with a serum-free RPMI were used as negative control cells, while cells treated with 1% Triton X-100 in serum-free media were used as a positive control. The final results were calculated using the mean of three experiments, each with triplicate wells.

Assay [7] deals with K-562. Type of assay: cell-based, human. Particulars: 24 h. As to the method: (§1) Tumor cells were plated in 96-well flat-bottom microtitration plates (Nunc, Dutscher, Brumath, France) and incubated at 37° C. for 24 hours before treatment in 190 μl of drug-free culture medium supplemented or not with 10% FBS for adherent or suspension growing cell lines, respectively.
(§2) The adherent cell lines were washed once with 200 μl FBS-free culture medium before treatment. […] top dose of 400 μM (range 4×10^−4 to 4×10^−10 M), with 1% (final concentration) Triton X-100 as positive control and FBS-free culture medium as negative control. The cells (190 μl) were incubated in a 200 μl final volume of FBS-free culture medium containing test substances at 37° C. under 5% CO2.
(§3) Three independent experiments were performed, each concentration being tested in quadruplicate. Control cells were treated with vehicle alone. At the end of treatments, the cytotoxic activity was evaluated by a MTS assay (see § 3.3.).
(§4) Like MTT, MTS is bioreduced by cells into a formazan product that is directly soluble in culture medium without processing, unlike MTT.
(§5) At the end of the cells treatment, 40 μl of a 0.22 μm filtered freshly combined solution of MTS (20 ml at 2 mg/ml, Ref G1111, Batch 235897, Exp March 2009, Promega, Charbonnières, France) and PMS (1 ml at 0.92 mg/ml, Ref P9625, Batch 065K0961, Sigma) in Dulbecco's Phosphate Buffered Saline (DPBS, Ref 17-513Q, Batch 6MB0152, Cambrex), were added in each well. Culture plates were incubated for 2 h at 37° C. Absorbency (OD) were measured at 490 nm in each well using VICTOR^3™ 1420 multilabeled counter (Wallac, PerkinElmer, Courtaboeuf, France).
(§6) IC50: drug concentration to obtain a 50% inhibition of cell proliferation.
(§7) The dose-response curves were plotted using XLFit 3 (IDBS, United Kingdom). The IC50 determination values were calculated using the XLFit 3 software from semi-log curves. Individual IC50 determination values as well as mean and SD values were generated.

For assay [8], the system named is IGROV-1. The class given is cell-based, human. To be noted: 24 h. The method, then:
as §1, §2, §3, §4, §5, §6, §7

Assay [9] relates to HL-60. Type of assay: cell-based, human. To be noted: 24 h. The method, then: as §1, §2, §3, §4, §5, §6, §7
Assay [10] deals with MCF-7. The class given is cell-based, human. To be noted: 24 h. The method, then:
as §1, §2, §3, §4, §5, §6, §7

The subject of assay [11] is HUV-EC-C normal cell line. Type of assay: cell-based, human. To be noted: 24 h. The method, then: as §1, §2, §3, §4, §5, §6, §7

SMILES strings stand for the structures. Where two headings read alike, the source gives them in different places. Non-standard residues stand in square brackets, D forms with d. Residues, ends and D or L forms follow the SMILES beside them. Dip = N[C@H](C(=O)O)C(c1ccccc1)c1ccccc1

Regarding `NCCCC[C@H](NC(=O)[C@@H](NC(=O)[C@H](Cc1c[nH]c2ccccc12)NC(=O)[C@H](CCCCN)NC(=O)[C@H](CCCCN)NC(=O)[C@H](Cc1c[nH]c2ccccc12)NC(=O)[C@H](Cc1c[nH]c2ccccc12)NC(=O)[C@H](CCCCN)NC(=O)[C@@H](N)CCCCN)C(c1ccccc1)c1ccccc1)C(N)=O` [LTX-315, K-K-W-W-K-K-W-Dip-K-NH2] (H-KKWWKKW[Dip]K-NH2), the “Mitochondrial membrane potential (Mitotracker signal)” value in [1] is given as “loss of mitochondrial signal”. Moreover, the “HMGB1 translocation from cell lysate to supernatant” value in assay [2] is given as “gradual translocation from the cell lysate to the supernatant detected”. Further, the “ATP release into supernatant” value in assay [3] is “ATP was detected in the supernatant as early as after 5 minutes of treatment”. Also, the “Exposure time causing cell death” value in assay [4] came to 30 min. Also, the “Animals with complete regression of palpable A20 tumors” value in assay [5] was “one of the animals”. Moreover, the “Animals with partial response” value in [5] was “remainder of the animals”. Further, the IC50 came to 14 µM in assay [6] (90 minutes of incubation); 30 µM in [6] (five minutes of incubation); 3.27 µM in assay [7]; 6.37 µM in assay [8]; 2.07 µM in assay [9]; 1.94 µM in assay [10]. Besides, the IC50 in [11] was 23 µM.

These data come from patent US11123398B2, “Chemotherapeutic combinations of cationic antimicrobial peptides and chemotherapeutics” (LYTIX BIOPHARMA AS, priority 2014, dated 2021).
